Laboratory results as given in patent publication US20240425457A1, “COMPOSITIONS AND METHODS FOR SUPPRESSING AND/OR TREATING METABOLIC DISEASES AND/OR A CLINICAL CONDITION THEREOF” (CK Biotech Inc., priority 2018, published 2024).
Entries after “also recorded” stand apart in the source; their conditions may differ. Read-outs that look alike come from different tables or passages of the source. Values belong to the molecule of their own block, whether it stands above or below them.

Columns and labels:
3T3-L1 preadipocytes = assay: adipocyte differentiation of 3T3-L1 preadipocytes, Oil Red O staining; format: cell-based
Procedure: Cell culture and adipocyte differentiation. 3T3-L1 cells were seeded in six-well plates at a density of 3×10^4 cells per well. The cells were grown in Dulbecco's modified Eagle medium (DMEM) with 10% bovine calf serum (Gibco) until confluent. After confluence, cells were induced to differentiate in DMEM containing 10% fetal bovine serum (FBS; Gibco) and MDI (520 μM methylisobutylxanthine (IBMX; Sigma-Aldrich), 1 μM dexamethasone (Sigma-Aldrich), and 167 nM insulin (Gibco)) with or without A3334. On day 4, the medium was replaced with DMEM containing 10% FBS and 167 nM insulin with or without A3334 and changed with fresh identical medium every 2 days up to day 14 post-induction. Cells were incubated at 37° C. in a 5% CO2 environment.
Oil Red O staining. […] For the quantification of lipid contents, the Oil Red O was eluted by the addition of 500 μl isopropanol containing 4% nonidet P-40 to each well and the absorbance was measured spectrophotometrically at 590 nm.
ORO staining. […] In the morning each well was washed thoroughly with water and images of the ORO staining were recorded with a Nikon bright-field optical microscope (Nikon TE-2000U, Tokyo, Japan) and quantified for further statistical analysis. For quantify lipid contents, the ORO was eluted by addition of 500 µl isopropanol containing 4% nonidet P-40 to each well and the absorbance was measured spectrophotometrically at 590 nm. […]

CXXC5-DVL interaction [1] = target: T1, CXXC5-DVL interaction (Homo sapiens, UniProt O14640); assay: Dvl-CXXC5 in vitro binding assay, (PTD-DBMP)-(PZD-DVL), concentration dependent
T1 sequence (O14640 251-323 limits assumed): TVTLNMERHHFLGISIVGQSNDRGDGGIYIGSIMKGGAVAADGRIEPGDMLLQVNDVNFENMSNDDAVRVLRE

HFD-induced obese mice = assay: HFD-induced obese mice, oral administration during 16 weeks of HFD; format: in vivo; conditions: HFD 16 weeks
Procedure: Anti-obesity effects of […], a small molecule […] inhibitor. Referring now to FIG. 34, C57BL/6N mice were fed HFD for 16 weeks with or without oral administration of 25 mpk […] or Orlistat. Orlistat is an anti-obesity drug that is thought to act by limiting the absorption of fats from the diet (e.g., a lipase inhibitor). […] Referring now to FIG. 35, The C57BL/6N mice were grown with HFD for 16 weeks with or without oral administration of 25 mpk of […], […], and I3O. […] The increase in adipocyte cell sizes and enhancement of inflammation (evaluated by crown like structures; blue; FIG. 35B) were suppressed by treatment with […] in the HFD mice.

MCD-induced NASH mice = assay: MCD diet-induced NASH mice; format: in vivo; conditions: MCD diet 7 weeks; for hepatosteatosis (H&E): then 25 mg/kg daily oral gavage 3 weeks
Procedure: NASH study. Eight-week-old wild-type male C57BL/6N mice (KOATECH, Seoul, Korea) were fed on the methionine-choline deficient (MCD) diet for 7 weeks, followed by treatment with vehicle, A3334, A3051, or I3O of (25 mg kg^−1) sitagliptin (25 mg kg^−1) for another 3 weeks via daily oral gavage.
Collagen staining. 4 µm-liver tissues sections were stained using two common collagen staining methods. For Masson's trichrome staining, slides were fixed in Bouin's solution for 1 h. After incubation in Weigert's iron hematoxylin solution for 10 min, the slides were stained with Biebrich Scarlet-Acid Fuchsin and Aniline blue for 5 min. The collagen fibers were stained blue and the nuclei were stained black. For picrosirius red staining, sections were stained with Weigert's solution for 8 min and picrosirius red for 1 h. The collagen fibers were stained red with blue nuclei.

CXXC5-DVL interaction [2] = target: T1, CXXC5-DVL interaction; assay: in vitro CXXC5-DVL PPI inhibition screening assay (FITC-tagged PTD-DBMP on DVL-PDZ, fluorescence); format: binding
Procedure: Screening for compounds that inhibit the CXXC5-DVL interaction. […] CELL. DEATH. DIFFER. […] After the addition of 10 μM FITC-tagged PTD-DBMP to each well, each compound in the chemical library or control (DMSO) was treated to the well at a final concentration of 30 μM. The fluorescence intensity was measured using a Fluorstar Optima microplate reader (BGM Lab Technologie, Ortenberg, Germany) and normalized as follows: “(‘compounds-treated group’−‘blank’)/(‘DMSO-treated control’−‘blank’)*100”.

[3] = FIG. 33A-33C, unit inferred, read-out: IC50, in vitro (PTD-DBMP)-(PZD-DVL) binding analyses

- IC50 (CXXC5-DVL interaction [1]; [3]): 7.71 nM
SMILES: CO/N=C1/C(=C2/C(=O)Nc3cc(Cl)c(Cl)cc32)Nc2ccccc21 [Compound A3051, 5,6-dichloroindirubin-3′-methoxime]
- adipogenic differentiation of 3T3-L1 preadipocytes (3T3-L1 preadipocytes): significant anti-differentiation effects
- adipocyte cell size and inflammation (crown like structures) (HFD-induced obese mice; 25 mpk oral): showed reduction in adipocyte size and anti-inflammatory effects, but those effects were lower when compared to that of the A3334 treatment
- hepatosteatosis (H&E) (MCD-induced NASH mice): also reduced hepatosteatosis, but revealed only marginal effects compared to A3334
- inhibition of CXXC5-DVL interaction (in words) (CXXC5-DVL interaction [2]): effectively inhibited interaction between CXXC5 and DVL

- IC50 (CXXC5-DVL interaction [1]; FIG. 10B, read-out: CXXC5-Dvl PPI inhibition IC50): 63.1 nM
- IC50 (CXXC5-DVL interaction [1]; [3]): 25.8 nM
SMILES: COc1ccc2c(c1)/C(=C1/Nc3ccccc3/C1=N\O)C(=O)N2 [Compound A3334, 5-Methoxyindirubin-3′-oxime]
- adipogenic differentiation of 3T3-L1 preadipocytes (3T3-L1 preadipocytes): efficiently inhibited the adipogenic differentiation of 3T3-L1 preadipocytes; also recorded: significant anti-differentiation effects
- HFD-induced body weight gain and abdominal obesity (HFD-induced obese mice; 25 mpk oral): not observed in the HFD mice treated with A3334
- adipocyte cell size and inflammation (crown like structures) (HFD-induced obese mice; 25 mpk oral): suppressed by treatment with A3334
- fatty liver and white adipocyte tissue (HFD-induced obese mice; 25 mpk oral): suppression of fatty liver and white adipocyte tissue
- glucose tolerance (GTT) and insulin tolerance (ITT) (HFD-induced obese mice; 25 mpk oral): significantly improved by the A3334 treatment
- triglyceride, total cholesterol, HDL-cholesterol (HFD-induced obese mice; 25 mpk oral): significantly reduced the level of triglyceride and total cholesterol and increased the level of HDL-cholesterol
- inhibitory effect on weight gain compared with orlistat (HFD-induced obese mice; both 25 mpk): much more significant than the effects observed in the HFD mice treated with orlistat
- ALT and AST levels (MCD-induced NASH mice; then 25 mg/kg daily 3 weeks): mostly abolished by A3334 treatment
- FFAs and TG in serum (MCD-induced NASH mice; then 25 mg/kg daily 3 weeks): mostly abolished with A3334 treatment
- fibrosis, histological analyses (MCD-induced NASH mice; then 25 mg/kg daily 3 weeks): improvement of the MCD-diet induced fibrosis by A3334
- liver mRNA of pro-inflammation, FA oxidation, apoptosis and fibrosis markers (MCD-induced NASH mice; then 25 mg/kg daily 3 weeks): significantly reduced by A3334
- hepatosteatosis (H&E) (MCD-induced NASH mice): significantly abolished by A3334 co-treatment
- inhibition of CXXC5-DVL interaction (in words) (CXXC5-DVL interaction [2]): effectively inhibited interaction between CXXC5 and DVL
